# From ChEMBL document CHEMBL1201862, “PubChem BioAssay data set” (2004)
# Active and inactive are the calls of the source.
# Biological target: Hepatocyte growth factor receptor (Homo sapiens, UniProt P08581);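 also: kinase panel profiling across the kinome, with MET as the panel member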
# Type: functional
row,Ki,SMILES
1,631 nM (active),Cc1ccc(C)c(NC(=O)c2cc(-c3ccco3)nc3ccccc23)c1
2,316 nM (active),COc1ccc(C2=NNc3cccc4c(OC)ccc2c34)cc1OC

row,SMILES,Ki
1,CN1CCC(c2c(O)cc(O)c3c(=O)cc(-c4ccccc4Cl)oc23)C(O)C1 (configuration not stated),> 2510 nM (inactive)

# Biological target: Proto-oncogene tyrosine-protein kinase receptor Ret (Homo sapiens, UniProt P07949);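 also: measured within a kinome-wide profiling panel, RET as the panel member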
# Sequence (P07949 whole entry): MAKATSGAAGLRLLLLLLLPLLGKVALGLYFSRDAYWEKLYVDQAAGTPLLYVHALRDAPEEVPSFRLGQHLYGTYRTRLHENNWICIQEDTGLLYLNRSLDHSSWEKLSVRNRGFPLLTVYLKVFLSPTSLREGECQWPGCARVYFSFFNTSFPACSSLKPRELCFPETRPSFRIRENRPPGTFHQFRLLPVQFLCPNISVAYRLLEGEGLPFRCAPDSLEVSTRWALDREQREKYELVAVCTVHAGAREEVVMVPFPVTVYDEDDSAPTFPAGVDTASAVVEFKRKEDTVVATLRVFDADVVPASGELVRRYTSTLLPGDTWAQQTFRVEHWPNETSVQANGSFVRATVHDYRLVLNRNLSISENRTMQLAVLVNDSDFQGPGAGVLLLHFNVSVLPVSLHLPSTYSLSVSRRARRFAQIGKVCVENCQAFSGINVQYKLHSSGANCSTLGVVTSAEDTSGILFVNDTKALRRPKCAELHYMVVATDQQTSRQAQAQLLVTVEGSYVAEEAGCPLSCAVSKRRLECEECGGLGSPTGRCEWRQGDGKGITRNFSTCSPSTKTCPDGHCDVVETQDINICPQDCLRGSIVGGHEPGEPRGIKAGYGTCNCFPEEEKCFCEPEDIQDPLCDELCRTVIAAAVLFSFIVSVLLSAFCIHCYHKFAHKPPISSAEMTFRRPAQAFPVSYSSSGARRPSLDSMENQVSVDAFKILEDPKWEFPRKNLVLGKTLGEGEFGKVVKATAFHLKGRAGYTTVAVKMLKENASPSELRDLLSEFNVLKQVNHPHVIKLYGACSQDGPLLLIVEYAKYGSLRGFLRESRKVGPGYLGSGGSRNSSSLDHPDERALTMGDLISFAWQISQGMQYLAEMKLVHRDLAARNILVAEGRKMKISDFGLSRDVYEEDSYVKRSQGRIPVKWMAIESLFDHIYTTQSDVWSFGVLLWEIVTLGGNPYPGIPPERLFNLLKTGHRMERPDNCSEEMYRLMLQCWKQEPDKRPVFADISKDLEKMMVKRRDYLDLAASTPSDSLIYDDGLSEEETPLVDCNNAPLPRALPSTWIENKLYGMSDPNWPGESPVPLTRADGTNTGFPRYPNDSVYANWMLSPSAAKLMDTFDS
# Type: functional
row,Ki,SMILES
1,3.16 µM (active),Cc1ccc(C)c(NC(=O)c2cc(-c3ccco3)nc3ccccc23)c1
2,0.501 µM (active),COc1ccc(C2=NNc3cccc4c(OC)ccc2c34)cc1OC

row,SMILES,Ki
1,CN1CCC(c2c(O)cc(O)c3c(=O)cc(-c4ccccc4Cl)oc23)C(O)C1 (configuration not stated),> 2 µM (inactive)

# Biological target: Leucine-rich repeat serine/threonine-protein kinase 2 (Homo sapiens, UniProt Q5S007);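 also: value from a broad kinome-wide panel profiling study in which LRRK2 was one of the kinases tested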
# Type: functional
row,Ki,SMILES
1,1.58 µM (active),Cc1ccc(C)c(NC(=O)c2cc(-c3ccco3)nc3ccccc23)c1
2,0.251 µM (active),COc1ccc(C2=NNc3cccc4c(OC)ccc2c34)cc1OC

row,SMILES,Ki
1,CN1CCC(c2c(O)cc(O)c3c(=O)cc(-c4ccccc4Cl)oc23)C(O)C1 (configuration not stated),1 µM (active)

# Biological target: T1, Serine/threonine-protein kinase TAO1 (Homo sapiens, UniProt Q7L7X3)
# T1 sequence (Q7L7X3 whole entry): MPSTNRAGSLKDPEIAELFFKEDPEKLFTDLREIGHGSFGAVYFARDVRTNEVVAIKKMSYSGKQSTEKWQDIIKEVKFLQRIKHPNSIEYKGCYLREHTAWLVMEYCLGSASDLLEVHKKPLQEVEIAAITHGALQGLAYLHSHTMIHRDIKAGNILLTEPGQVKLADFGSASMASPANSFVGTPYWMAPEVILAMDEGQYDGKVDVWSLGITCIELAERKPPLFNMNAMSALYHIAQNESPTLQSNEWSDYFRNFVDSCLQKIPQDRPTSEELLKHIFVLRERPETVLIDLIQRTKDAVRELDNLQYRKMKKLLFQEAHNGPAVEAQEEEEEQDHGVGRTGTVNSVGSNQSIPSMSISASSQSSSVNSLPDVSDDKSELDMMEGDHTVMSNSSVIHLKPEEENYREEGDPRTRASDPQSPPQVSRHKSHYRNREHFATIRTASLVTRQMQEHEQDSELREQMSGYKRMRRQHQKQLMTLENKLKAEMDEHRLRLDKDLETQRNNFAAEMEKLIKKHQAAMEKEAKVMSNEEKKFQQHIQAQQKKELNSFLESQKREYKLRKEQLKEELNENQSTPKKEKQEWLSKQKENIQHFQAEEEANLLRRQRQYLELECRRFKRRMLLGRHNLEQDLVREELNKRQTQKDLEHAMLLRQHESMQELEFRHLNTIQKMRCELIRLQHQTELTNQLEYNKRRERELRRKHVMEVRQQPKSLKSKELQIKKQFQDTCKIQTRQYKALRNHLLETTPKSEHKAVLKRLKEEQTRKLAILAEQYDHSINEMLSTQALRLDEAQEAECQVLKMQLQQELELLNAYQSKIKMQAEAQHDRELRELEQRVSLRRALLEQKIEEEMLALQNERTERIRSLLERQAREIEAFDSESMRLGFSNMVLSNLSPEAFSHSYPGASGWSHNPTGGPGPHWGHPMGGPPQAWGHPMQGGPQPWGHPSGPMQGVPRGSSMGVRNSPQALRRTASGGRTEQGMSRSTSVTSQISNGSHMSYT
# Type: functional
row,Ki,SMILES
1,3.98 µM (active),Cc1ccc(C)c(NC(=O)c2cc(-c3ccco3)nc3ccccc23)c1
2,1 µM (active),COc1ccc(C2=NNc3cccc4c(OC)ccc2c34)cc1OC

row,SMILES,Ki
1,CN1CCC(c2c(O)cc(O)c3c(=O)cc(-c4ccccc4Cl)oc23)C(O)C1 (configuration not stated),0.794 µM (active)

# Biological target: Dual specificity tyrosine-phosphorylation-regulated kinase 1B (Homo sapiens, UniProt Q9Y463)
# Sequence (Q9Y463 whole entry): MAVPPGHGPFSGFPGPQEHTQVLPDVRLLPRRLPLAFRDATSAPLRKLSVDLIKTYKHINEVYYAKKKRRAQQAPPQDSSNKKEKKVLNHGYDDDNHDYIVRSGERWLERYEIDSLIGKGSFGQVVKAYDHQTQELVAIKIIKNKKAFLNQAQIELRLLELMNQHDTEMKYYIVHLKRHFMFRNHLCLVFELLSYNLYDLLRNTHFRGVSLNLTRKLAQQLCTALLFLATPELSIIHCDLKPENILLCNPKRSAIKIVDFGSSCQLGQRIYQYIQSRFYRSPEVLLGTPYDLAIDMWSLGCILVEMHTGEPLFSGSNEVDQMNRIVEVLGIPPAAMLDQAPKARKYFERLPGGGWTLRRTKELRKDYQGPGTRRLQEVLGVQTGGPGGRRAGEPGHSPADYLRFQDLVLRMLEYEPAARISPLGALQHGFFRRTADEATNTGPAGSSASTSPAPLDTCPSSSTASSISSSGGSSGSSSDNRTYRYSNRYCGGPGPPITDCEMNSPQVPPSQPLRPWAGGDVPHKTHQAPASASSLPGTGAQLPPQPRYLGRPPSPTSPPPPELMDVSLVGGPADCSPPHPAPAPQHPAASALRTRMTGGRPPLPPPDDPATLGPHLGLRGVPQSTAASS
# Test: Navigating the Kinome. Panel member name: DYRK1B
# Type: functional
row,Ki,SMILES
1,1000 nM (active),Cc1ccc(C)c(NC(=O)c2cc(-c3ccco3)nc3ccccc23)c1
2,316 nM (active),COc1ccc(C2=NNc3cccc4c(OC)ccc2c34)cc1OC

row,SMILES,Ki
1,CN1CCC(c2c(O)cc(O)c3c(=O)cc(-c4ccccc4Cl)oc23)C(O)C1 (configuration not stated),126 nM (active)

# Biological target: Dual specificity protein kinase CLK4 (Homo sapiens, UniProt Q9HAZ1)
# Type: functional
row,Ki,SMILES
1,398 nM (active),Cc1ccc(C)c(NC(=O)c2cc(-c3ccco3)nc3ccccc23)c1
2,63.1 nM (active),COc1ccc(C2=NNc3cccc4c(OC)ccc2c34)cc1OC

row,SMILES,Ki
1,CN1CCC(c2c(O)cc(O)c3c(=O)cc(-c4ccccc4Cl)oc23)C(O)C1 (configuration not stated),1260 nM (active)

# Biological target: 5'-AMP-activated protein kinase catalytic subunit alpha-1 (Homo sapiens, UniProt Q13131)
# Sequence (Q13131 whole entry): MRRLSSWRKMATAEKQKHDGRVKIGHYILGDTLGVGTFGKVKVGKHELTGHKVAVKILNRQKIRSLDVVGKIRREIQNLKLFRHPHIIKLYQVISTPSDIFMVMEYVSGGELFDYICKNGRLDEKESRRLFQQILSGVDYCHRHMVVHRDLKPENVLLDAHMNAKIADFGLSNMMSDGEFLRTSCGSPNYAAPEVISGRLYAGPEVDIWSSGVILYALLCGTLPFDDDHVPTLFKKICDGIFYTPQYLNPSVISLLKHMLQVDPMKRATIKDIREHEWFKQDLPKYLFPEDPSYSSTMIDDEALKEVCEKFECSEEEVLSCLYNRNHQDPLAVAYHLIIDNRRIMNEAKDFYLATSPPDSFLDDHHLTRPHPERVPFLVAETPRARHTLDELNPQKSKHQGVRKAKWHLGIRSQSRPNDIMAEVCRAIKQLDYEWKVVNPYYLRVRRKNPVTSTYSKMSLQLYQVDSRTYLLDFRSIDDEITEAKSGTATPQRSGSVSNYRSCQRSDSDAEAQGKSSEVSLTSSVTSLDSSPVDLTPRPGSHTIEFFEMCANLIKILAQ
# Type: functional
row,Ki,SMILES
1,2 µM (active),Cc1ccc(C)c(NC(=O)c2cc(-c3ccco3)nc3ccccc23)c1
2,0.794 µM (active),COc1ccc(C2=NNc3cccc4c(OC)ccc2c34)cc1OC

row,SMILES,Ki
1,CN1CCC(c2c(O)cc(O)c3c(=O)cc(-c4ccccc4Cl)oc23)C(O)C1 (configuration not stated),> 2.51 µM (inactive)

# Biological target: Activated CDC42 kinase 1 (Homo sapiens, UniProt Q07912)
# Sequence (Q07912 whole entry): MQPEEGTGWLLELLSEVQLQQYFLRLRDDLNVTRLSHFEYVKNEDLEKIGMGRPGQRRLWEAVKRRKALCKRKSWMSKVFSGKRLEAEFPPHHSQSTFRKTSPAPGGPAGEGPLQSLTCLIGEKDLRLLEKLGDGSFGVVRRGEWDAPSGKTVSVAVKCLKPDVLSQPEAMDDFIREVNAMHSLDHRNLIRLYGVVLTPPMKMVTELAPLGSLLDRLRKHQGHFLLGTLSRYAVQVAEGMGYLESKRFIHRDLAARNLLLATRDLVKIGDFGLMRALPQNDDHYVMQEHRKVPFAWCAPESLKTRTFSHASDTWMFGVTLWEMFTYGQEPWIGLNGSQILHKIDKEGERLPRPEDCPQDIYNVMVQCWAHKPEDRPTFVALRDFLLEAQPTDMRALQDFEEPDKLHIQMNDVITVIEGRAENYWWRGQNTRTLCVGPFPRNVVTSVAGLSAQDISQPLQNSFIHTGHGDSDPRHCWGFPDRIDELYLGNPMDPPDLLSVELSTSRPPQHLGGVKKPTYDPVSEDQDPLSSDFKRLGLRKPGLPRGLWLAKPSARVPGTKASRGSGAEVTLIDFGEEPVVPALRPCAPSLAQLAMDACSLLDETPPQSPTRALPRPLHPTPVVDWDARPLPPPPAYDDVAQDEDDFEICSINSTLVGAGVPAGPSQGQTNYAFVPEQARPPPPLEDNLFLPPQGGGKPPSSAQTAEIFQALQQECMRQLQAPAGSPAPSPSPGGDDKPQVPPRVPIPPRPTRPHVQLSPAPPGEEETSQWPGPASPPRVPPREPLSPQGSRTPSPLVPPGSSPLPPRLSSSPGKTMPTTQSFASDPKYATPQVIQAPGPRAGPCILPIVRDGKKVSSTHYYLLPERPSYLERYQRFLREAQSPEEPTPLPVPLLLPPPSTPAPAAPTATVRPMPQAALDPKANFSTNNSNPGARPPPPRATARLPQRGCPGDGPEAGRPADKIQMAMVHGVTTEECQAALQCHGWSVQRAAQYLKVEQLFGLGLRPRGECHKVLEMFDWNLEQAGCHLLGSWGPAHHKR
# Test: Navigating the Kinome. Panel member name: ACK1
# Type: functional
row,Ki,SMILES
1,> 3.98 µM (inactive),Cc1ccc(C)c(NC(=O)c2cc(-c3ccco3)nc3ccccc23)c1
2,1.26 µM (active),COc1ccc(C2=NNc3cccc4c(OC)ccc2c34)cc1OC

row,SMILES,Ki
1,CN1CCC(c2c(O)cc(O)c3c(=O)cc(-c4ccccc4Cl)oc23)C(O)C1 (configuration not stated),> 3.98 µM (inactive)

# Biological target: Dual specificity tyrosine-phosphorylation-regulated kinase 1A (Homo sapiens, UniProt Q13627);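 also: measured against DYRK1A as one member of a broad kinome profiling panel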
# Type: functional
row,Ki,SMILES
1,631 nM (active),Cc1ccc(C)c(NC(=O)c2cc(-c3ccco3)nc3ccccc23)c1
2,79.4 nM (active),COc1ccc(C2=NNc3cccc4c(OC)ccc2c34)cc1OC

row,SMILES,Ki
1,CN1CCC(c2c(O)cc(O)c3c(=O)cc(-c4ccccc4Cl)oc23)C(O)C1 (configuration not stated),794 nM (active)

# Biological target: Aurora kinase B (Homo sapiens, UniProt Q96GD4)
# Sequence (Q96GD4 whole entry): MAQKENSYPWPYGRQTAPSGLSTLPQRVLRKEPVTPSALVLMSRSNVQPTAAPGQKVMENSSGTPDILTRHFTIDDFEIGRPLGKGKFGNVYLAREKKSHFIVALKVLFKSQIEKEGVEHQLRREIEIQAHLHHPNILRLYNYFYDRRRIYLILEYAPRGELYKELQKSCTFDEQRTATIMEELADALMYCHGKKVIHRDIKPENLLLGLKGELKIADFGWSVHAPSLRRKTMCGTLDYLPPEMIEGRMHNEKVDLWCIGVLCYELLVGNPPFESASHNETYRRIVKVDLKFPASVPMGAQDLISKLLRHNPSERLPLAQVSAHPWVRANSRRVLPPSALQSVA
# Type: functional
row,Ki,SMILES
1,3.16 µM (active),Cc1ccc(C)c(NC(=O)c2cc(-c3ccco3)nc3ccccc23)c1
2,> 3.98 µM (inactive),COc1ccc(C2=NNc3cccc4c(OC)ccc2c34)cc1OC

row,SMILES,Ki
1,CN1CCC(c2c(O)cc(O)c3c(=O)cc(-c4ccccc4Cl)oc23)C(O)C1 (configuration not stated),> 5.01 µM (inactive)

# Biological target: Mitogen-activated protein kinase 8 (Homo sapiens, UniProt P45983);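 also: value comes from one member of a kinome-wide kinase profiling panel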
# Sequence (P45983 whole entry): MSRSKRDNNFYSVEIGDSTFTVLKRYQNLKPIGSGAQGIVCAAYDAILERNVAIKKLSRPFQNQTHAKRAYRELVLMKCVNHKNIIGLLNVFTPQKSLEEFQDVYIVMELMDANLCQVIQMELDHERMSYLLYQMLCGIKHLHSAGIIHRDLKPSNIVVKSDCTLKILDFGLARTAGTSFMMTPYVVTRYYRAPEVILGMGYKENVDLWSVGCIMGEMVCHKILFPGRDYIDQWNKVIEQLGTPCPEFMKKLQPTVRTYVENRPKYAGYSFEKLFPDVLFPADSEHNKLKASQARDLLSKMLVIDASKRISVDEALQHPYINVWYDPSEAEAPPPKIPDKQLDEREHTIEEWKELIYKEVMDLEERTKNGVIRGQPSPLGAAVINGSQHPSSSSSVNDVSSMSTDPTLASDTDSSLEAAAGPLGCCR
# Type: functional
row,Ki,SMILES
1,> 5.01 µM (inactive),Cc1ccc(C)c(NC(=O)c2cc(-c3ccco3)nc3ccccc23)c1
2,> 5.01 µM (inactive),COc1ccc(C2=NNc3cccc4c(OC)ccc2c34)cc1OC

row,SMILES,Ki
1,CN1CCC(c2c(O)cc(O)c3c(=O)cc(-c4ccccc4Cl)oc23)C(O)C1 (configuration not stated),> 3.98 µM (inactive)

# Biological target: Vascular endothelial growth factor receptor 1 (Homo sapiens, UniProt P17948);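 also: measured within a kinome-wide profiling panel, FLT1 as the panel member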
# Type: functional
row,Ki,SMILES
1,3.16 µM (active),Cc1ccc(C)c(NC(=O)c2cc(-c3ccco3)nc3ccccc23)c1
2,0.316 µM (active),COc1ccc(C2=NNc3cccc4c(OC)ccc2c34)cc1OC

row,SMILES,Ki
1,CN1CCC(c2c(O)cc(O)c3c(=O)cc(-c4ccccc4Cl)oc23)C(O)C1 (configuration not stated),> 2 µM (inactive)

# Biological target: T2, Aurora kinase A (Homo sapiens, UniProt O14965);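 also: value from the Navigating the Kinome kinase panel profiling, panel entry STK6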
# T2 sequence (O14965 whole entry): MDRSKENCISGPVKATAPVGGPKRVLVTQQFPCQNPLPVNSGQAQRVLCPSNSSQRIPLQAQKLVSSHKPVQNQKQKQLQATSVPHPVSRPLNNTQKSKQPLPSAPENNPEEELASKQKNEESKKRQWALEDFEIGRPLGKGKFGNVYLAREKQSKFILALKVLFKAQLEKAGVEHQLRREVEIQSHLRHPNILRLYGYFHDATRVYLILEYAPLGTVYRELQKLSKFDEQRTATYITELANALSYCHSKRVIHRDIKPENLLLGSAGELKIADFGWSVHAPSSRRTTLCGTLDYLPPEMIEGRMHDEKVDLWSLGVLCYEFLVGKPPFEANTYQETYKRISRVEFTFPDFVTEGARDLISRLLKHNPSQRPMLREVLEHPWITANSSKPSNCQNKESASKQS
# Type: functional
row,Ki,SMILES
1,1 µM (active),Cc1ccc(C)c(NC(=O)c2cc(-c3ccco3)nc3ccccc23)c1
2,> 1.58 µM (inactive),COc1ccc(C2=NNc3cccc4c(OC)ccc2c34)cc1OC

row,SMILES,Ki
1,CN1CCC(c2c(O)cc(O)c3c(=O)cc(-c4ccccc4Cl)oc23)C(O)C1 (configuration not stated),> 1.58 µM (inactive)

# Biological target: Ribosomal protein S6 kinase alpha-3 (Homo sapiens, UniProt P51812);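 also: measured within a kinome-wide profiling panel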
# Sequence (P51812 whole entry): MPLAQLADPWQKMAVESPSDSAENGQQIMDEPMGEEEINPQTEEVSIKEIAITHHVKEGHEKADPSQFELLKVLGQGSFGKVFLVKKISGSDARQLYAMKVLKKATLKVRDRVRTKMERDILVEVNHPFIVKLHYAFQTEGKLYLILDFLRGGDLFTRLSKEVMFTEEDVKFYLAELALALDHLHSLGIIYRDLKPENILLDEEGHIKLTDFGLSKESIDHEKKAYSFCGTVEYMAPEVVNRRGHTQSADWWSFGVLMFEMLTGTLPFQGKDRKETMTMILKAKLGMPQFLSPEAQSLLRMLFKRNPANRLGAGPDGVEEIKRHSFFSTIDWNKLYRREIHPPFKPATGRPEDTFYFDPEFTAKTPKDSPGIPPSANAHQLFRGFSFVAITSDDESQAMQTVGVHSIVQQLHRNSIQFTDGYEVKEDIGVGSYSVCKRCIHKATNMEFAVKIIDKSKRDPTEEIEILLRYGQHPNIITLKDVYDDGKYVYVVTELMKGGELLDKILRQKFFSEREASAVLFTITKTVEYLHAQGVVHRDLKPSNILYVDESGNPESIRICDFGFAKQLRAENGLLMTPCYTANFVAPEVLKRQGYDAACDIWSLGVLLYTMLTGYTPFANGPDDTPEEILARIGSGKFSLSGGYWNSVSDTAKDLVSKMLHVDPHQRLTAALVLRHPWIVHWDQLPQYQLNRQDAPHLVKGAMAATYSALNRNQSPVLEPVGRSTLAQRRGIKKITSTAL
# Type: functional
row,Ki,SMILES
1,3.16 µM (active),Cc1ccc(C)c(NC(=O)c2cc(-c3ccco3)nc3ccccc23)c1
2,1.58 µM (active),COc1ccc(C2=NNc3cccc4c(OC)ccc2c34)cc1OC

row,SMILES,Ki
1,CN1CCC(c2c(O)cc(O)c3c(=O)cc(-c4ccccc4Cl)oc23)C(O)C1 (configuration not stated),1.26 µM (active)
